Literature values, collected in patent US4713384A, “Selective method for blocking 5HT2 receptors” (Eli Lilly and Company, priority 1985, dated 1987).

How the values were obtained:
5HT receptor = details: cited from earlier work
alpha-receptors = details: literature; cited from earlier work
[1] = literature; cited from earlier work
migraine = details: clinical trial, Lance I, Table 1; cited from earlier work
5HT2 = details: Awouters; cited from earlier work

Question: With CC[C@@H](CO)NC(=O)[C@@H]1C=C2c3cccc4c3c(cn4C)C[C@H]2N(C)C1 [methysergide] as the compound, how does the “5HT receptor blockade rating” value (5HT receptor; Berde, most active compound = 1,000) read?
Answer: 1,000

Question: And the “5HT receptor activity (agonist/antagonist) in words” value (5HT receptor; literature)?
Answer: 5HT agonists at low concentrations but antagonistic at higher concentrations and partial 5HT agonist in certain blood vessels and very potent 5HT antagonist in the CNS

Question: And the “alpha receptor activity in words” value (alpha-receptors)?
Answer: little or no action on alpha-receptors

Question: And the oxytocic action [1]?
Answer: no oxytocic action

Question: What about the “Improvement rate in migraine” value (migraine) of the same compound?
Answer: 64%

Question: What about the “5HT2 agonist activity and side effects” value (5HT2) of the same compound?
Answer: responsible for some of the side effects
